{"source": "patent US20220177587A1", "about": "“METHODS AND USES OF VARIANT CD80 FUSION PROTEINS AND RELATED CONSTRUCTS” (Alpine Immune Sciences, Inc., priority 2018, published 2022)", "key": {"huCTLA4": {"target": "huCTLA4 (Homo sapiens, UniProt P16410)", "sequence (P16410 36-223)": "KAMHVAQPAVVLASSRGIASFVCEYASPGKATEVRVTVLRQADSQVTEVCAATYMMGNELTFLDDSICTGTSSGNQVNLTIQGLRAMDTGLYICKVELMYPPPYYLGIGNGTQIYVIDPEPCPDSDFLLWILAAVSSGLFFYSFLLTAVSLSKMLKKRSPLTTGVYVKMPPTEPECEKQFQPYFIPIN", "assay": "Antagonism of CD80/CTLA-4 binding on CHO cells expressing CTLA-4", "design": "Full-length mammalian surface expression constructs for each of human CTLA-4, PD-L1, and CD28", "details": "25 nM fluorochrome-conjugated wild-type CD80-Fc; FIG. 21", "description": "After washing, cells were incubated with 25 nM fluorochrome-conjugated wild-type CD80-Fc. Bound fluorescent competitor protein was detected and measured by flow cytometry.\nThe multivalent variant CD80 IgSF domain fusion proteins were assessed to test for blocking of the PD-L1/PD-1 and CTLA-4/CD80 interaction performed substantially as described in Example 15. CHO/OKT3/PD-L1 and CHO/CTLA-4 cells were counted and plated at 100,000 cells/well and then incubated with fluorescently conjugated PD-1-Fc and CD80-Fc. Exemplary multivalent variant CD80 IgSF domain fusion proteins were incubated with the cells for 30 minutes. […] Cells were washed and incubated with 100 nM fluorescently conjugated PD-1-Fc and CD80-Fc competitor for 30 minutes. Cells were then washed and samples were acquired on a flow cytometer and MFIs of the fluorescently labeled molecules were determined."}, "[1]": {"tested_on": "primary human pan T cells", "assay": "Cytokine production following PD-L1-dependent costimulation", "type": "cell-based", "details": "mitomycin-c treated K562/OKT3/PDL1 aAPC; FIG. 6"}, "MC38 hPD-L1 tumor cells": {"tested_on": "MC38 hPD-L1 tumor cells", "assay": "MC38 hPD-L1 tumor model in C57BL/6 mice", "type": "in vivo, mouse", "description": "Mouse MC38 tumor cells were stably transfected with human PD-L1 (MC38 hPD-L1) and implanted subcutaneously into C57BU6 mice. […] Tumor volume was tracked over time.\n70 female C57CL/6 mice, containing similar tumor volumes of approximately 50-51 mm^3, following implantation of MC38 hPD-L1 tumor cells, were staged and divided into 5 treatment groups containing 14 mice each. […] Tumor volumes were measured on days 7, 10, and 12. On day 13, 5 animals were sacrificed for analysis as described in the sections below. Tumor measurements resumed for the remaining 9 mice for each group on days 17, 20 and 27. On days 26, 28, and 31, the animals in Group 1 (Fc isotype control) received an intratumoral injection of 100 μg E35D/M47L CD80-IgV-Fc.\n95 female C57BU6 mice were implanted with MC38 hPD-L1 tumor cells. The tumors were staged on Day 7, and 77 mice with similar tumor volumes of approximately 60 mm^3 were divided into 7 treatment groups containing 11 mice each.\nOn day 49, tumor-free mice, from Groups 3, 4, 6, and 7, and 2 naïve C57CL/6 mice were re-challenged with an additional injection of hPD-L1 MC38 cells. Tumor volumes were measured on days 56, 59, and 63. The results are depicted in FIG. 13. […] At day 59, 8/8 mice from Group 3, 1/2 mice from Group 4, 1/1 mouse from Group 6, and 2/2 mice from Group 7 were tumor-free, and by day 63, all mice in Group 3, Group 4, Group 6, and Group 7 were tumor-free.\n75 animals were staged into 3 treatment groups 7 days after implantation with hPD-L1 MC38 tumor cells. […] Tumor volumes were measured every 3-4 days, from Day 11 until Day 35. 3 days after the 1st dose, 2nd dose and 3rd dose, 4 mice from each group were sacrificed for tumor and LN analyses, leaving 13 mice for tumor volume measurements throughout the study period."}, "[2]": {"tested_on": "huPD-L1-expressing MC38 tumors", "assay": "huPD-L1 MC38 tumor model, IP or IT delivery", "type": "in vivo, mouse", "description": "The MC38 cell line was transduced with human PD-L1 (huPD-L1) Subconfluent cells (˜80% confluent) were harvested on the day of implantation (study day 0), washed twice and brought to a final concentration of 15×10^6 cells/mL in DPBS. Female C57BL/6NJ mice (Jackson Labs, USA) were implanted subcutaneously with approximately 1.5×10^6 cells (0.1 mL) in the right mid-flank region.\nOn day 7, mice were randomized into six groups, with each group having a similar mean tumor volume (46.6 mm^3).\nTumor volume was measured as described in Example 21 to assess anti-tumor activity. Median tumor growth curves among individual treated mice over time were plotted.\nOn day 11 post-tumor cell implant and prior to dosing of test articles, five mice from each of Group 1-4 and Group 6 were sacrificed, and the tumors were harvested, weighed and processed for ex vivo tumor analysis. The MC38 cells at time of implant and tumors harvested from a subset of mice on day 11 by enzymatic digestion were evaluated for expression of huPD-L1 or human IgG (to detect Fc of cell-bound test molecules) by flow cytometry. The percent positive and median fluorescent intensity (MFI) of huPD-L1 and huIgG were quantified on the CD45-negative subset of tumor cells.\nTumors at day 11 were also evaluated for CD8+ T cells and for antigen-specific CD8+ T cells within the CD3+ cell population. p15E is an MHC class I restricted T cell antigen expressed in the MC38 tumor cell lines derived from C57BL/6 mice. A mouse MHC class I p15E tetramer labeled with PE (MBL International Corp.) was used to detect the p15E-MHC class I restricted T cell receptor."}, "[3]": {"tested_on": "PBMC obtained from CMV seropositive donor", "assay": "Cytomegalovirus (CMV) antigen-specific T cell functional assay", "type": "cell-based, human", "description": "Peripheral blood mononuclear cells (PBMC) obtained from CMV seropositive donor were thawed and CMV lysate added at 1 μg/mL to 250,000/well PBMC. […] In addition, the anti-PD-1 antibody alone was also tested. An Fc only molecule was also tested as control. Supernatant was collected 48 hours after incubation to assay IL-2 by ELISA.\nThe multivalent variant CD80 IgSF domain fusion proteins were assessed to test for IL-2 production in the CMV assay substantially as described in Example 22. Exemplary multivalent variant CD80 IgSF domain fusion proteins generated as described above were tested at various concentrations from 100000 pM to 46 pM"}, "[4]": {"tested_on": "human PD-L1-transduced MC38 tumor", "assay": "huPD-L1 MC38 tumor model, combination with anti-PD-L1 or anti-CD28 blocking antibodies", "type": "in vivo, mouse", "description": "Anti-tumor activity was evaluated by serial tumor measurements."}, "[5]": {"details": "3 injections of 100 μg on Days 8, 10 and 12"}, "[6]": {"details": "re-challenged on day 49 with hPD-L1 MC38 cells"}}, "data": [{"substance": "H18Y/A26E/E35D/M47L/V68M/A71G/D90G: variant CD80 IgV-Fc (inert), IgV SEQ ID NO:491", "values": [{"measurement": "antagonism of binding of CD80 to CTLA-4", "setting": "huCTLA4", "result": "antagonized the binding of CD80 to CTLA-4"}, {"measurement": "IL-2 secretion in culture supernatants", "setting": "[1]", "result": "resulted in IL-2 secretion in culture supernatants"}, {"measurement": "mice with no detectable tumors (tumor-free) upon completion of the study", "setting": "MC38 hPD-L1 tumor cells; 100 μg on days 7, 9 and 11, 11 mice per group", "result": 8, "unit": "mice"}, {"measurement": "tumor-free mice at day 35", "setting": "MC38 hPD-L1 tumor cells; [5]", "result": "6/13"}, {"measurement": "tumor-free mice on Day 18", "setting": "MC38 hPD-L1 tumor cells; [5]", "result": "6/13"}, {"measurement": "tumor growth / tumor volume", "setting": "MC38 hPD-L1 tumor cells; i.p. dosing, compared to Fc control or anti-PD-L1", "result": "greater decrease in the median and mean tumor volumes"}, {"measurement": "tumor-free mice after re-challenge, day 59", "setting": "MC38 hPD-L1 tumor cells; [6]", "result": "8/8"}, {"measurement": "tumor-free mice after re-challenge, day 63", "setting": "MC38 hPD-L1 tumor cells; [6]", "result": "tumor-free"}, {"measurement": "percent of p15E-specific CD8+ T cells in tumors", "setting": "[2]; 500 or 1500 μg IP or 100 μg IT, day 11", "result": "significantly greater percent of p15E-specific CD8+ T cells as compared to Fc control-treated mice"}, {"measurement": "anti-tumor growth activity", "setting": "[2]; IT injection 100 μg on days 8, 11 and 14", "result": "substantial anti-tumor growth activity"}, {"measurement": "anti-tumor activity (tumor volume)", "setting": "[2]; single IP injection 100, 500, 1500 μg", "result": "dose-dependent increase in anti-tumor activity compared to Fc control treatment"}, {"measurement": "IL-2 production", "setting": "[3]; alone, 48 hours, FIG. 23", "result": "showed augmentation of IL-2 production compared to the Fc only control"}, {"measurement": "IL-2 production", "setting": "[3]; in combination with 50 nM anti-PD-1 antibody (nivolumab)", "result": "greater increase in IL-2 production compared to levels of IL-2 production in the presence of either molecule alone"}, {"measurement": "antitumor activity", "setting": "[4]; coadministration with anti-CD28 or anti-PD-L1", "result": "coadministration with either anti-CD28 or anti-PD-L1 reduced the antitumor activity"}, {"measurement": "antitumor activity", "setting": "[4]; monotherapy 100 μg IP", "result": "demonstrated activity superior to PD-L1 blockade alone"}]}]}
